The values that follow come from ChEMBL document CHEMBL1125340, “Inhibition of hog liver folylpolyglutamate synthetase by 5-substituted 5,8-dideaza analogues of folic acid bearing a terminal L-ornithine residue” (J Med Chem, 1992).

For the assay, the system named is Folylpolyglutamate synthase (Sus scrofa). Briefly: The ratio of Kinetic constant Vmax / Binding constant Km at homogenous Hog Liver Folyl polyglutamate Synthetase (FPGS).

SMILES strings stand for the structures.

In the case of `NCCCC(NC(=O)c1ccc(CNc2ccc3nc(N)nc(O)c3c2C(F)(F)F)cc1)C(=O)O` (centres undefined), the Ratio stood at 118. The figure for `NCCCC(NC(=O)c1ccc(CNc2ccc3nc(N)nc(O)c3c2F)cc1)C(=O)O` (centres undefined) is 64; for `NCCCC(NC(=O)c1ccc(CNc2ccc3nc(N)nc(O)c3c2Cl)cc1)C(=O)O` (centres undefined) it is 102; for `NCCCC(NC(=O)c1ccc(NCc2ccc3nc(N)nc(O)c3c2C(F)(F)F)cc1)C(=O)O` (centres undefined) it is 121.
